Test results published in the NIST ThermoML archive (doi:10.1016/j.tca.2007.03.018).

Test: molar heat capacity at saturation pressure

C1C2CC3CC1CC(C14CC5CC(CC(C5)C1)C4)(C2)C3 [1,1'-biadamantane]
Conditions | molar heat capacity [J/K/mol]
306.17 K, Crystal 3, Small (less than 1 g) adiabatic calorimetry | 347.5
307.06 K, Crystal 3, Small (less than 1 g) adiabatic calorimetry | 348.5
307.82 K, Crystal 3, Small (less than 1 g) adiabatic calorimetry | 349.9
309.07 K, Crystal 3, Small (less than 1 g) adiabatic calorimetry | 351.4
309.47 K, Crystal 3, Small (less than 1 g) adiabatic calorimetry | 352.2
311.07 K, Crystal 3, Small (less than 1 g) adiabatic calorimetry | 354
311.11 K, Crystal 3, Small (less than 1 g) adiabatic calorimetry | 354.6
312.75 K, Crystal 3, Small (less than 1 g) adiabatic calorimetry | 356.8
313.06 K, Crystal 3, Small (less than 1 g) adiabatic calorimetry | 356.9
314.38 K, Crystal 3, Small (less than 1 g) adiabatic calorimetry | 359.1
315.04 K, Crystal 3, Small (less than 1 g) adiabatic calorimetry | 359.6
316.02 K, Crystal 3, Small (less than 1 g) adiabatic calorimetry | 361.4
317.02 K, Crystal 3, Small (less than 1 g) adiabatic calorimetry | 362.4
317.64 K, Crystal 3, Small (less than 1 g) adiabatic calorimetry | 363.7
319 K, Crystal 3, Small (less than 1 g) adiabatic calorimetry | 365.1
319.26 K, Crystal 3, Small (less than 1 g) adiabatic calorimetry | 366
320.52 K, Crystal 3, Small (less than 1 g) adiabatic calorimetry | 367.5
320.8 K, Crystal 3, Small (less than 1 g) adiabatic calorimetry | 367.7
321.41 K, Crystal 3, Small (less than 1 g) adiabatic calorimetry | 368.7
322.3 K, Crystal 3, Small (less than 1 g) adiabatic calorimetry | 370.2
322.43 K, Crystal 3, Small (less than 1 g) adiabatic calorimetry | 370.1
323.19 K, Crystal 3, Small (less than 1 g) adiabatic calorimetry | 371.6
324.05 K, Crystal 3, Small (less than 1 g) adiabatic calorimetry | 372.5
324.09 K, Crystal 3, Small (less than 1 g) adiabatic calorimetry | 372.8
324.98 K, Crystal 3, Small (less than 1 g) adiabatic calorimetry | 374.1
325.67 K, Crystal 3, Small (less than 1 g) adiabatic calorimetry | 375
325.87 K, Crystal 3, Small (less than 1 g) adiabatic calorimetry | 375.2
326.76 K, Crystal 3, Small (less than 1 g) adiabatic calorimetry | 376.5
327.28 K, Crystal 3, Small (less than 1 g) adiabatic calorimetry | 377.6
327.65 K, Crystal 3, Small (less than 1 g) adiabatic calorimetry | 377.8
328.53 K, Crystal 3, Small (less than 1 g) adiabatic calorimetry | 379.5
328.89 K, Crystal 3, Small (less than 1 g) adiabatic calorimetry | 380.4
329.42 K, Crystal 3, Small (less than 1 g) adiabatic calorimetry | 380.9
330.31 K, Crystal 3, Small (less than 1 g) adiabatic calorimetry | 382.3
330.5 K, Crystal 3, Small (less than 1 g) adiabatic calorimetry | 384
331.19 K, Crystal 3, Small (less than 1 g) adiabatic calorimetry | 388.1
332.05 K, Crystal 3, Small (less than 1 g) adiabatic calorimetry | 401.3
332.08 K, Crystal 3, Small (less than 1 g) adiabatic calorimetry | 395.6
332.9 K, Crystal 3, Small (less than 1 g) adiabatic calorimetry | 409.2
333.64 K, Crystal 3, Small (less than 1 g) adiabatic calorimetry | 409.5
333.73 K, Crystal 3, Small (less than 1 g) adiabatic calorimetry | 418.7
334.55 K, Crystal 3, Small (less than 1 g) adiabatic calorimetry | 433.2
335.12 K, Crystal 3, Small (less than 1 g) adiabatic calorimetry | 446.3
335.33 K, Crystal 3, Small (less than 1 g) adiabatic calorimetry | 453.8
336.07 K, Crystal 2, Small (less than 1 g) adiabatic calorimetry | 469.6
336.53 K, Crystal 2, Small (less than 1 g) adiabatic calorimetry | 499.5
336.81 K, Crystal 2, Small (less than 1 g) adiabatic calorimetry | 461.5
337.59 K, Crystal 2, Small (less than 1 g) adiabatic calorimetry | 432.8
337.89 K, Crystal 2, Small (less than 1 g) adiabatic calorimetry | 481.7
338.4 K, Crystal 2, Small (less than 1 g) adiabatic calorimetry | 410.4
339.25 K, Crystal 2, Small (less than 1 g) adiabatic calorimetry | 400.5
339.33 K, Crystal 2, Small (less than 1 g) adiabatic calorimetry | 423.8
340.12 K, Crystal 2, Small (less than 1 g) adiabatic calorimetry | 396.8
340.86 K, Crystal 2, Small (less than 1 g) adiabatic calorimetry | 403.4
340.99 K, Crystal 2, Small (less than 1 g) adiabatic calorimetry | 393.9
341.87 K, Crystal 2, Small (less than 1 g) adiabatic calorimetry | 393.4
342.42 K, Crystal 2, Small (less than 1 g) adiabatic calorimetry | 398.5
342.75 K, Crystal 2, Small (less than 1 g) adiabatic calorimetry | 393.3
343.63 K, Crystal 2, Small (less than 1 g) adiabatic calorimetry | 393.7
343.99 K, Crystal 2, Small (less than 1 g) adiabatic calorimetry | 395.4
344.52 K, Crystal 2, Small (less than 1 g) adiabatic calorimetry | 394.3
345.4 K, Crystal 2, Small (less than 1 g) adiabatic calorimetry | 395
345.57 K, Crystal 2, Small (less than 1 g) adiabatic calorimetry | 396.6
346.29 K, Crystal 2, Small (less than 1 g) adiabatic calorimetry | 395.9
347.15 K, Crystal 2, Small (less than 1 g) adiabatic calorimetry | 397.4
347.17 K, Crystal 2, Small (less than 1 g) adiabatic calorimetry | 396.8
348.06 K, Crystal 2, Small (less than 1 g) adiabatic calorimetry | 397.6
348.72 K, Crystal 2, Small (less than 1 g) adiabatic calorimetry | 398.5
348.95 K, Crystal 2, Small (less than 1 g) adiabatic calorimetry | 398.4
349.84 K, Crystal 2, Small (less than 1 g) adiabatic calorimetry | 399.5
350.3 K, Crystal 2, Small (less than 1 g) adiabatic calorimetry | 400
351.09 K, Crystal 2, Small (less than 1 g) adiabatic calorimetry | 401.1
351.88 K, Crystal 2, Small (less than 1 g) adiabatic calorimetry | 403.6
352.68 K, Crystal 2, Small (less than 1 g) adiabatic calorimetry | 402.9
353.46 K, Crystal 2, Small (less than 1 g) adiabatic calorimetry | 405.6
354.28 K, Crystal 2, Small (less than 1 g) adiabatic calorimetry | 404.8
355.03 K, Crystal 2, Small (less than 1 g) adiabatic calorimetry | 407.3
355.88 K, Crystal 2, Small (less than 1 g) adiabatic calorimetry | 406.9
356.61 K, Crystal 2, Small (less than 1 g) adiabatic calorimetry | 409.2
357.47 K, Crystal 2, Small (less than 1 g) adiabatic calorimetry | 408.7
358.18 K, Crystal 2, Small (less than 1 g) adiabatic calorimetry | 411.3
359.05 K, Crystal 2, Small (less than 1 g) adiabatic calorimetry | 411
359.75 K, Crystal 2, Small (less than 1 g) adiabatic calorimetry | 413.4
360.64 K, Crystal 2, Small (less than 1 g) adiabatic calorimetry | 412.9
361.32 K, Crystal 2, Small (less than 1 g) adiabatic calorimetry | 415.4
362.22 K, Crystal 2, Small (less than 1 g) adiabatic calorimetry | 414.6
362.88 K, Crystal 2, Small (less than 1 g) adiabatic calorimetry | 417.5
363.82 K, Crystal 2, Small (less than 1 g) adiabatic calorimetry | 416.7
364.44 K, Crystal 2, Small (less than 1 g) adiabatic calorimetry | 419.7
365.3 K, Crystal 2, Large sample (1 g) DSC | 422.2
365.4 K, Crystal 2, Small (less than 1 g) adiabatic calorimetry | 418.8
366 K, Crystal 2, Small (less than 1 g) adiabatic calorimetry | 421.6
366.98 K, Crystal 2, Small (less than 1 g) adiabatic calorimetry | 420.9
367.55 K, Crystal 2, Small (less than 1 g) adiabatic calorimetry | 423.3
368.55 K, Crystal 2, Small (less than 1 g) adiabatic calorimetry | 423
